Data taken from US20230081426A1, “COMPOUNDS AND METHODS FOR KRAS MODULATION AND INDICATIONS THEREFOR” (Plexxikon Inc., priority 2020, published 2023).

Assays:
[1] = target: T1, G12D-mutant human KRAS (amino acid residues 1-188) (Homo sapiens, UniProt P01116, G12D); assay: KRAS Binding Disruption Assay (AlphaScreen; biotinylated KRpep-2d analogue or RAF1-RBD), G12D; conditions: KRAS G12D; geometric mean; read-out: KRAS GMean IC50 (uM) MUTATION: G12D
T1 construct: G12D or G12C-mutant human KRAS (amino acid residues 1-188) with FLAG tag; made in house; host or cells: E. coli
T1 sequence (P01116 1-188 isoform P01116-2 G12D): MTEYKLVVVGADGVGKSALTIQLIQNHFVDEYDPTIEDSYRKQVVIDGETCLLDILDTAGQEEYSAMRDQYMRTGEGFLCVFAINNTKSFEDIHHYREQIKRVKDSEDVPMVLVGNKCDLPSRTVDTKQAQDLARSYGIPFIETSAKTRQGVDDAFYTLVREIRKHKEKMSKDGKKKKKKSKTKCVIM
Outline: (§1)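 Displacement format with mutant KRAS, biotinylated KRpep-2d analogue or RAF1-RBD (5-20 nM each) at pH 7.5 with 5 mM MgCl2.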

[2] = target: T2, G12C-mutant human KRAS (amino acid residues 1-188) (Homo sapiens, UniProt P01116, G12C); assay: KRAS Binding Disruption Assay (AlphaScreen; biotinylated KRpep-2d analogue or RAF1-RBD), G12C; conditions: geometric mean, read-out: KRAS GMean IC50 (uM) MUTATION: G12C
T2 construct: G12D or G12C-mutant human KRAS (amino acid residues 1-188) with FLAG tag; made in house; host or cells: E. coli
T2 sequence (P01116 1-188 isoform P01116-2 G12C): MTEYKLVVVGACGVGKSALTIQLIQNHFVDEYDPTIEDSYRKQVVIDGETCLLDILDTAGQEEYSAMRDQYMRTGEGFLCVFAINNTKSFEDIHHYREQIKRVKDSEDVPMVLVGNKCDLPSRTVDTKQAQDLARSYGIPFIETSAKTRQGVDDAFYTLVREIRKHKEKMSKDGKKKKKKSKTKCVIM
Outline: as §1

| SMILES | IC50 [1] | IC50 [2] |
| --- | --- | --- |
| Oc1cc(-c2ccc3c(N4C[C@H]5CC[C@@H](C4)N5)nc(OCC4CCC(F)(F)CC4)nc3c2F)c2ccccc2c1 [P-0752, 4-(4-((1R,5S)-3,8-diazabicyclo[3.2.1]octan-3-yl)-2-((4,4-difluorocyclohexyl)methoxy)-8-fluoroquinazolin-7-yl)naphthalen-2-ol] | 0.0001 to 10 µM | 10 to 100 µM |
| Oc1cc(-c2ccc3c(N4C[C@H]5CC[C@@H](C4)N5)nc(OCC4CC(F)(F)C4)nc3c2F)c2ccccc2c1 [P-0778, 4-(4-((1R,5S)-3,8-diazabicyclo[3.2.1]octan-3-yl)-2-((3,3-difluorocyclobutyl)methoxy)-8-fluoroquinazolin-7-yl)naphthalen-2-ol] | 0.0001 to 10 µM | 10 to 100 µM |
| O=C(CCO)Nc1nc(N2C[C@H]3CC[C@@H](C2)N3)c2ccc(-c3cc(O)cc4ccccc34)c(F)c2n1 [P-0655, N-(4-((1R,5S)-3,8-diazabicyclo[3.2.1]octan-3-yl)-8-fluoro-7-(3-hydroxynaphthalen-1-yl)quinazolin-2-yl)-3-hydroxypropanamide] | 0.0001 to 10 µM | 100 to 1000 µM |
| CC(C)(COc1nc(N2C[C@H]3CC[C@@H](C2)N3)c2ccc(-c3cc(O)cc4ccccc34)c(F)c2n1)NS(C)(=O)=O [P-0718, N-(1-((4-((1R,5S)-3,8-diazabicyclo[3.2.1]octan-3-yl)-8-fluoro-7-(3-hydroxynaphthalen-1-yl)quinazolin-2-yl)oxy)-2-methylpropan-2-yl)methanesulfonamide] | 0.0001 to 10 µM | 10 to 100 µM |
| CC(CCBr)Oc1nc(N2C[C@H]3CC[C@@H](C2)N3)c2ccc(-c3cc(O)cc4ccccc34)c(F)c2n1 (stereo partly drawn) [P-0755, 4-(4-((1R,5S)-3,8-diazabicyclo[3.2.1]octan-3-yl)-2-((4-bromobutan-2-yl)oxy)-8-fluoroquinazolin-7-yl)naphthalen-2-ol] | 0.0001 to 10 µM | 10 to 100 µM |
| CN1CC2(C1)CN(c1nc(N3C[C@H]4CC[C@@H](C3)N4)c3ccc(-c4cc(O)cc5ccccc45)c(F)c3n1)C2 [P-0643, 4-(4-((1R,5S)-3,8-diazabicyclo[3.2.1]octan-3-yl)-8-fluoro-2-(6-methyl-2,6-diazaspiro[3.3]heptan-2-yl)quinazolin-7-yl)naphthalen-2-ol] | 0.0001 to 10 µM | 10 to 100 µM |

Further lines, results first:

| IC50 [1] | IC50 [2] | SMILES |
| --- | --- | --- |
| 0.0001 to 10 µM | 0.0001 to 10 µM | Fc1cc2c(N3C[C@H]4CC[C@@H](C3)N4)nc(OCC34CCCN3CCC4)nc2c(F)c1-c1c[nH]c2ccc(Cl)c(Cl)c12 [P-0774, 4-((1R,5S)-3,8-diazabicyclo[3.2.1]octan-3-yl)-7-(4,5-dichloro-1H-indol-3-yl)-6,8-difluoro-2-((tetrahydro-1H-pyrrolizin-7a(5H)-yl)methoxy)quinazoline] |
| 0.0001 to 10 µM | 100 to 1000 µM | Cc1ccc2[nH]cc(-c3c(F)cc4c(N5C[C@H]6CC[C@@H](C5)N6)nc(OC[C@@H]5CCCN5C)nc4c3F)c2c1 [P-0758, 4-((1R,5S)-3,8-diazabicyclo[3.2.1]octan-3-yl)-6,8-difluoro-7-(5-methyl-1H-indol-3-yl)-2-(((S)-1-methylpyrrolidin-2-yl)methoxy)quinazoline] |
| 0.0001 to 10 µM | 0.0001 to 10 µM | Fc1cc2c(N3C[C@H]4CC[C@@H](C3)N4)nc(OCC34CCCN3CCC4)nc2c(F)c1-c1c[nH]c2cccc(C(F)(F)F)c12 [P-0737, 4-((1R,5S)-3,8-diazabicyclo[3.2.1]octan-3-yl)-6,8-difluoro-2-((tetrahydro-1H-pyrrolizin-7a(5H)-yl)methoxy)-7-(4-(trifluoromethyl)-1H-indol-3-yl)quinazoline] |
| 0.0001 to 10 µM | 10 to 100 µM | CC(C)(COc1nc(N2C[C@H]3CC[C@@H](C2)N3)c2ccc(-c3cc(O)cc4ccccc34)c(F)c2n1)C(=O)O [P-0647, 3-((4-((1R,5S)-3,8-diazabicyclo[3.2.1]octan-3-yl)-8-fluoro-7-(3-hydroxynaphthalen-1-yl)quinazolin-2-yl)oxy)-2,2-dimethylpropanoic acid] |
